Reference: patent US20220008445A1, “METHODS, COMPOSITIONS, AND KITS FOR TREATING OCULAR DISEASES” (ELOXX PHARMACEUTICALS, priority 2018, published 2022)

Experiments:
[1] = tested on: retinal cultures; assay: Cytotoxicity in retinal cultures (staining profile); format: cell-based
Experimental: The cytotoxicity of NB30, NB54, NB84, NB122, NB124, and NB127 was evaluated in retinal cultures.

[2] = tested on: nonsense mutation R262X in the Oca2 gene; assay: Read-through after intravitreal injection in albino mice (melanin production); format: in vivo, SJL/J mice
Experimental: Read-through activity following intravitreal injection of aminoglycosides was evaluated in animal models.
Albino mice (SJL/J mice) harbor the nonsense mutation R262X in the Oca2 gene resulting in an absence of melanin production in melanocytes. This model provides an initial evaluation of compound availability to the back of the eye when administered by intravitreal injection—higher concentrations of melanin correspond to greater read-through activity.
NB122, NB124, NB124-MeS, NB84, NB118, NB127, NB128, and NB157 were evaluated for read-through activity following intravitreal injection into SJL/J mice. FIGS. 20-21 show intravitreal read-through for each compound relative to gentamicin.

[3] = tested on: retina; conditions: have been reported; cited from earlier work
[4] = tested on: healthy New Zealand white rabbits; assay: Single-dose intravitreal tolerability, ERG and histology; format: in vivo; conditions: nine days after single 300 μg or 600 μg intravitreal injection
Experimental: Biocompatibility and pharmacokinetic/pharmacodynamic profiles were then evaluated for intravitreal injection of NB118 versus gentamicin. Single-dose tolerability was screened in healthy New Zealand white rabbits and evaluated based on ERG and histology. Dark-adapted oscillatory potential and photopic b-wave amplitudes were measured pre- and nine-days post a single 300 μg or 600 μg injection of aminoglycoside as shown in FIG. 2.
Results were confirmed by a veterinary pathologist.

[5] = intravitreal, human; cited from earlier work

| Compound | staining profile versus untreated retinal cultures [1] | melanin ([2]; 0.2 μg intravitreal, t-test vs. vehicle control) | dose at which toxicity observed ([2]; intravitreal, pilot study FIG. 19) | reported retinal toxicities [3] | dark-adapted oscillatory potential peaks (ERG) [4] | photopic b-wave potentials (ERG) [4] | half-life [5] |
| --- | --- | --- | --- | --- | --- | --- | --- |
| NCC[C@H](O)C(=O)N[C@@H]1CC(N)[C@@H](O[C@H]2OC(CO)[C@@H](O)[C@H](O)C2N)[C@H](O[C@@H]2O[C@H](CN)[C@H](O)C2O)C1O (stereo partly shown) [NB54] | did not significantly differ |  |  |  |  |  |  |
| gentamicin [reference compound] |  | increases melanin | 0.5 µg | dose-limiting retinal toxicities | ablation | moderate reduction | 40 to 60 h |
